Data on 20 molecules can be found in PubChem BioAssay AID330 (DTP/NCI, 2004).

Molecules are shown by their SMILES. Values joined by “and” are separate entries in the source; they are usually repeats but may differ in a detail not shown here. Equal entries are not always repeated. Inconclusive results and toxic doses are left out.

The test relates to P388 leukemia ip, CD2F1 mice, survival T/C. The experiment in a line: NCI In Vivo Anticancer Drug Screen. Data for tumor model P388 Leukemia (intraperitoneal) in CD2F1 (CDF1) mice. The settings on record: endpoint: median survival time, higher = longer survival. The method in brief:
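Mice carrying the transplanted tumor received test compound or vehicle. Survival was recorded in each group, and the value is the treated-group measurement divided by that of the vehicle-treated control group.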

Where [1] appears, read: dose: 25.0 mg/kg/injection, schedule: Q01DX009 (ip), vehicle: saline with Tween-80.
[2] abbreviates: dose: 50.0 mg/kg/injection, schedule: Q01DX009 (ip), vehicle: saline with Tween-80.
Where [3] appears, read: dose: 60.0 mg/kg/injection, schedule: Q01DX005 (ip), vehicle: saline with Tween-80.
The mark [4] stands for this setting: dose: 120.0 mg/kg/injection, schedule: Q01DX005 (ip), vehicle: saline with Tween-80.
Where [5] appears, read: dose: 240.0 mg/kg/injection, schedule: Q01DX005 (ip), vehicle: saline with Tween-80.
Setting [6] is: dose: 200.0 mg/kg/injection, schedule: Q01DX005 (ip), vehicle: saline with Tween-80.
[7] abbreviates: dose: 100.0 mg/kg/injection, schedule: Q04DX003 (ip), vehicle: saline with Tween-80.

Consider `CSc1nc2n(C)cc(C)cc-2c(=O)n1`, for which the T/C by setting is: (dose: 25.0 mg/kg/injection, schedule: Q01DX001 (ip), vehicle: saline with Tween-80) 97 % of control; (dose: 50.0 mg/kg/injection, schedule: Q01DX001 (ip), vehicle: saline with Tween-80) 97 % of control; (dose: 100.0 mg/kg/injection, schedule: Q01DX001 (ip), vehicle: saline with Tween-80) 99 % of control.

For `CCc1c(-c2ccccc2)[nH]c2ccccc12`, the T/C is 105 % of control under setting [1]; 116 % of control (dose: 50.0 mg/kg/injection, schedule: Q01DX009 (ip), vehicle: saline + alcohol); 100 % of control under setting [2]; 112 % of control (dose: 100.0 mg/kg/injection, schedule: Q01DX009 (ip), vehicle: saline + alcohol); 115 % of control (dose: 100.0 mg/kg/injection, schedule: Q01DX009 (ip), vehicle: saline with Tween-80); 103 % of control (dose: 200.0 mg/kg/injection, schedule: Q01DX009 (ip), vehicle: saline + alcohol). The T/C (dose: 400.0 mg/kg/injection, schedule: Q01DX009 (ip), vehicle: saline + alcohol) was 108 % of control.

`COc1cc2c(cc1C/C=C/c1cc(OC)c(OC)c(OC)c1)OCO2`: the T/C under setting [3] is 93 % of control, the T/C under setting [4] was 87 % of control and the T/C under setting [5] is 86 % of control.

Turning to `COC(=O)C1=C(O)C(C(=O)OC)=C2C1=C(C(=O)OC)C(=O)C2C(=O)OC` (stereo unspecified), the T/C runs as follows: (dose: 50.0 mg/kg/injection, schedule: Q01DX005 (ip), vehicle: water) 97 % of control; (dose: 100.0 mg/kg/injection, schedule: Q01DX005 (ip), vehicle: water) 98 % of control; (dose: 200.0 mg/kg/injection, schedule: Q01DX005 (ip), vehicle: water) 95 % of control.

Turning to `O=N[O-].O=N[O-].[I][Pt][I]`, the T/C (dose: 12.5 mg/kg/injection, schedule: Q01DX005 (ip), vehicle: saline) was 116 % of control and 117 % of control; the T/C (dose: 25.0 mg/kg/injection, schedule: Q01DX005 (ip), vehicle: saline) was 124 % of control; the T/C (dose: 50.0 mg/kg/injection, schedule: Q01DX005 (ip), vehicle: saline) was 105 % of control; the T/C (dose: 100.0 mg/kg/injection, schedule: Q01DX005 (ip), vehicle: saline) was 124 % of control.

For the molecule `Cc1ncc(CO)c(CO)c1OCC(O)CN1CCN(c2ccc(F)cc2)CC1` (stereo unspecified), the T/C is 99 % of control under setting [3], 98 % of control under setting [4] and 104 % of control under setting [5].

For `O=[N+]([O-])c1ccc(/C=C/[n+]2ccc3ccccc3c2)o1`, the T/C is 107 % of control (dose: 1.56 mg/kg/injection, schedule: Q01DX009 (ip), vehicle: saline); 103 % of control (dose: 3.12 mg/kg/injection, schedule: Q01DX009 (ip), vehicle: saline); 108 % of control and 91 % of control (dose: 6.25 mg/kg/injection, schedule: Q01DX009 (ip), vehicle: saline).

For the molecule `NC(CCCCCCC(N)C(=O)c1ccccc1)C(=O)c1ccccc1` (stereo unspecified), the T/C under setting [3] was 98 % of control, the T/C under setting [4] is 98 % of control and the T/C under setting [5] was 91 % of control.

As to `Cc1cccc(/C=N/Nc2nc3ccccc3s2)n1`, the T/C by setting is: (dose: 6.25 mg/kg/injection, schedule: Q01DX005 (ip), vehicle: saline with Tween-80) 90 % of control; (dose: 12.5 mg/kg/injection, schedule: Q01DX005 (ip), vehicle: saline with Tween-80) 89 % of control; under setting [6], 99 % of control.

Consider `CC(OS(C)(=O)=O)C(Br)C(Br)C(C)OS(C)(=O)=O` (stereo unspecified), for which the T/C reads like this: (dose: 100.0 mg/kg/injection, schedule: Q01DX001 (ip), vehicle: Klucel (hydroxypropylcellulose) (HPC)) 168 % of control; (dose: 200.0 mg/kg/injection, schedule: Q01DX001 (ip), vehicle: Klucel (hydroxypropylcellulose) (HPC)) 176 % of control.

`ClCCN(CCCl)c1ccc(N=Cc2ccccc2)cc1`: the T/C (dose: 1.56 mg/kg/injection, schedule: Q01DX009 (ip), vehicle: saline with Tween-80) is 159 % of control and 167 % of control; the T/C (dose: 3.12 mg/kg/injection, schedule: Q01DX009 (ip), vehicle: saline with Tween-80) is 179 % of control and 205 % of control; the T/C (dose: 6.25 mg/kg/injection, schedule: Q01DX009 (ip), vehicle: saline with Tween-80) was 230 % of control.

Regarding `CCn1c2ccc([N+](=O)[O-])cc2c2c([N+](=O)[O-])c(-n3cccc3)ccc21`, the T/C runs as follows: (dose: 50.0 mg/kg/injection, schedule: Q01DX005 (ip), vehicle: saline with Tween-80) 95 % of control; (dose: 100.0 mg/kg/injection, schedule: Q01DX005 (ip), vehicle: saline with Tween-80) 90 % of control; under setting [6], 88 % of control.

Take `O=NN(CCCl)C(=O)N[C@H]1CCCC[C@@H]1Cl`: the T/C reads like this: under setting [1], 250 % of control; (dose: 33.0 mg/kg/injection, schedule: Q04DX003 (ip), vehicle: saline with Tween-80) 200 % of control; under setting [2], 109 % of control; (dose: 50.0 mg/kg/injection, schedule: Q04DX003 (ip), vehicle: saline with Tween-80) 300 % of control; under setting [7], 90 % of control.

Consider `O=C(O)c1cc2c([N+](=O)[O-])cccc2[se]1`, for which the T/C is 100 % of control (dose: 12.5 mg/kg/injection, schedule: Q01DX009 (ip), vehicle: saline); 100 % of control (dose: 25.0 mg/kg/injection, schedule: Q01DX009 (ip), vehicle: saline); 94 % of control and 97 % of control (dose: 50.0 mg/kg/injection, schedule: Q01DX009 (ip), vehicle: saline).

For the molecule `O=[N+]([O-])c1ccccc1O`, the T/C reads like this: (dose: 12.5 mg/kg/injection, schedule: Q01DX009 (ip), vehicle: saline with Tween-80) 109 % of control; under setting [1], 113 % of control; under setting [2], 109 % of control; under setting [7], 105 % of control; (dose: 200.0 mg/kg/injection, schedule: Q04DX003 (ip), vehicle: saline with Tween-80) 110 % of control; (dose: 400.0 mg/kg/injection, schedule: Q04DX003 (ip), vehicle: saline with Tween-80) 105 % of control.

With `O=[N+]([O-])c1ccc2c(c1)Oc1cccnc1[Se]2`, the T/C reads like this: (dose: 60.0 mg/kg/injection, schedule: Q01DX005 (ip), vehicle: Klucel (hydroxypropylcellulose) (HPC)) 105 % of control; (dose: 120.0 mg/kg/injection, schedule: Q01DX005 (ip), vehicle: Klucel (hydroxypropylcellulose) (HPC)) 95 % of control; (dose: 240.0 mg/kg/injection, schedule: Q01DX005 (ip), vehicle: Klucel (hydroxypropylcellulose) (HPC)) 90 % of control.

In the case of `O=C(Nc1ccc(OCc2ccccc2)cc1)c1cc2c(cc1Br)OCO2`, the T/C was 106 % of control (dose: 25.0 mg/kg/injection, schedule: Q01DX009 (ip), vehicle: other); 104 % of control (dose: 50.0 mg/kg/injection, schedule: Q01DX009 (ip), vehicle: other); 106 % of control (dose: 100.0 mg/kg/injection, schedule: Q01DX009 (ip), vehicle: other); 100 % of control (dose: 200.0 mg/kg/injection, schedule: Q01DX009 (ip), vehicle: other); 100 % of control (dose: 400.0 mg/kg/injection, schedule: Q01DX009 (ip), vehicle: other).

As to `C/C(=C1/N=C(c2ccccc2)OC1=O)c1cccs1`, the T/C is, setting by setting: (dose: 50.0 mg/kg/injection, schedule: Q01DX005 (ip), vehicle: Klucel (hydroxypropylcellulose) (HPC)) 106 % of control; (dose: 100.0 mg/kg/injection, schedule: Q01DX005 (ip), vehicle: Klucel (hydroxypropylcellulose) (HPC)) 100 % of control; (dose: 200.0 mg/kg/injection, schedule: Q01DX005 (ip), vehicle: Klucel (hydroxypropylcellulose) (HPC)) 96 % of control.

For the molecule `O=c1[nH]c2c(c(=O)n1CC(O)CO)CCCC2` (stereo unspecified), the T/C runs as follows: under setting [3], 104 % of control; under setting [4], 100 % of control; under setting [5], 100 % of control.

Turning to `Cc1ccc(S(=O)(=O)SSN2CCCCC2)cc1`, the T/C is, setting by setting: under setting [3], 99 % of control; under setting [4], 101 % of control; under setting [5], 99 % of control.
